Experimental data as given in US5830909A (American Cyanamid Company, priority 1996, dated 1998).
Where a name gives a salt, the structure may show the parent alone.

Tests used:
adipocyte AII receptor = assay: Epididymal adipocyte AII receptor binding (Bmax) after two weeks oral treatment; type: in vivo, rat; settings: 4 rats/group, oral once daily for 2 weeks
Procedure: (§1) Body weight and food intake are monitored daily. At the end of two weeks, the rats are sacrificed and tissues are weighed. Adipocyte membranes are prepared by collagenase digestion, homogenization and centrfugation.
Binding is initiated by suspending the adipocyte membranes in 0.25% BSA buffer (bovine serum albumin, 50 mM Tris HCl, 5 mM MgCl2,pH 7.4) to a final concentration of 5 ug protein/10 ul buffer. […] The filters are placed in tubes, and radioactivity measured in a gamma scintillation counter programmed to correct for the half-life of the isotope. Using this experimental protocol, both the affinity (KD) and number of binding sites (Bmax) for angiotensin II on the adipocyte membrane can be calculated.

epididymal adipocytes = assay: Epididymal adipocyte cell volume after two weeks oral treatment; type: in vivo, rat; settings: 4 rats/group, oral once daily for 2 weeks
Procedure: as §1, with “centrfugation. […] Of the organs sampled, the combined largest relative and quantitative change in weight was in the adipose tissue.” for “centrfugation.”

AII receptor [1] = biological target: T1, AII receptor (Rattus norvegicus, UniProt P25095); assay: Displacement of 125I[Sar,Ile]AII binding in rat epididymal fat cell membranes
T1 construct: adipose tissue from the epididymal and retroperitoneal depots is quickly excised; from tissue; host or cells: membranes of collagenase-isolated adipocytes from epididymal and retroperitoneal fat of male Sprague-Dawley rats
T1 sequence (P25095 1-359): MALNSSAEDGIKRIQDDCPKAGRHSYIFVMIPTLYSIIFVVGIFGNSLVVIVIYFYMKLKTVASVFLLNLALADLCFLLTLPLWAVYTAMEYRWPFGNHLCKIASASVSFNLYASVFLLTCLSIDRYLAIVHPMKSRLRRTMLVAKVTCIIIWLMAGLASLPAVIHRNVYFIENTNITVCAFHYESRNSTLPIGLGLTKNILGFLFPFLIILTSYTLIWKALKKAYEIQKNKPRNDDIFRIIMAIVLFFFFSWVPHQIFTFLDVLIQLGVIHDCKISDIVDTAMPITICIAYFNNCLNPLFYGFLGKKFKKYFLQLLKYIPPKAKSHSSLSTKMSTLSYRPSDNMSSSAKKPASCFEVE
Description: The experimental design involves determining the binding characteristics of adipocyte membranes harvested from two different anatomic sites at three different ages. Male Sprague-Dawley rats (Charles River Laboratories, Wilmington, Mass.) are used at 40, 70 and 100 days of age. Rats are killed by carbon dioxide inhalation on the morning of the experiment, and adipose tissue from the epididymal and retroperitoneal depots is quickly excised and placed in cold saline. The spermatic artery and vein are removed from the epididymal fat, and brown fat deposits are dissected away from the retroperitoneal depot. The adipose tissue is weighed, minced into small pieces, and approximately 10 g each transferred to a flask containing 25 ml of Krebs-Ringer-bicarbonate buffer (KRB), 6 mM glucose and 50 mg of collagenase, pH 7.4. […] Intact adipocytes dissociated from the tissue pass freely into waiting tubes, while the undigested tissue is trapped on the screen. The tubes containing the adipocytes are washed an additional 4× with 20 ml each of cold Tris buffer (10 mM Tris HCl, pH 8.0) by first allowing the adipocytes to separate from the digestion medium by flotation, removing the infranatant through polyethylene tubing attached to a syringe, resuspending the cells in the Tris buffer, and repeating this procedure. Adipocyte membranes used for binding studies are prepared as follows. […] Following centrifugation, the fat cake and supernatant are carefully removed, and the pellet resuspended in 1 ml of Tris buffer. Protein content of the high speed pellet is determined, the resuspended protein is either assayed immediately or stored at -75° before binding assays are performed. […] The assay is initiated by the addition of the membrane protein, followed by incubation at 22° C. for 30 minutes in a slowly shaking water bath. Separation of bound from free radioactivity is achieved using any appropriate filtration apparatus. We use either a Millipore or Brandel model harvesting apparatus containing a Durapore or Whatman GF/B filter, followed by 6 additional rinses with 5 ml each of cold saline. The filters are placed in tubes, and radioactivity measured in a gamma scintillation counter programmed to correct for the half-life of the isotope. Using this experimental protocol, both the affinity (KD) and number of binding sites (Bmax) for angiotensin II on the adipocyte membrane can be calculated. The relative affinities of different anatomically distinct adipocyte membranes for a variety of peptide and nonpeptide antagonists can also be determined. […] Concentration ranges can be altered dependent upon the affinity of the particular antagonist for the fat cell membrane receptor.

[2] = type: in vivo, rat; settings: 15 mg/kg once a day by gavage, two weeks
Procedure: as §1, with “centrfugation. […] Of the organs sampled, the combined largest relative and quantitative change in weight was in the adipose tissue.” for “centrfugation.”

AII receptor [3] = biological target: T1, AII receptor; assay: Displacement of 125I[Sar,Ile]AII binding in rat retroperitoneal fat cell membranes
Description: The experimental design involves determining the binding characteristics of adipocyte membranes harvested from two different anatomic sites at three different ages. Male Sprague-Dawley rats (Charles River Laboratories, Wilmington, Mass.) are used at 40, 70 and 100 days of age. Rats are killed by carbon dioxide inhalation on the morning of the experiment, and adipose tissue from the epididymal and retroperitoneal depots is quickly excised and placed in cold saline. The spermatic artery and vein are removed from the epididymal fat, and brown fat deposits are dissected away from the retroperitoneal depot. […] Protein content of the high speed pellet is determined, the resuspended protein is either assayed immediately or stored at -75° before binding assays are performed. […] Separation of bound from free radioactivity is achieved using any appropriate filtration apparatus. […] The filters are placed in tubes, and radioactivity measured in a gamma scintillation counter programmed to correct for the half-life of the isotope. Using this experimental protocol, both the affinity (KD) and number of binding sites (Bmax) for angiotensin II on the adipocyte membrane can be calculated. The relative affinities of different anatomically distinct adipocyte membranes for a variety of peptide and nonpeptide antagonists can also be determined. […]

SMILES | Bmax, epididymal adipocyte AII receptor binding (adipocyte AII receptor) [fmole/mg protein] | Adipocyte Cell Volume (epididymal adipocytes) [p1] | IC50 (AII receptor [1]; Epididymal IC50 for displacement of 125I[Sar,Ile]AII binding, rat epididymal fat cell membranes (Table 8)) [µM] | Avg. Daily Food Intake, % Change From Control [2] [%] | Avg. Weight Gain, % Change From Control [2] [%] | Epididymal Fat Weight, % Change From Control [2] [%] | Final Body Weight, % Change From Control [2] [%] | Retroperitoneal Fat Weight, % Change From Control [2] [%] | Avg. Daily Food Intake ([2]; n = 6) [g] | Avg. Weight Gain ([2]; n = 6) [g] | Epididymal Fat Weight ([2]; n = 6) [g] | Final Body Weight ([2]; n = 6) [g] | Retroperitoneal Fat Weight ([2]; n = 6) [g] | IC50 (AII receptor [1]; Inhibitory Constants (IC50) for displacement of 125I[Sar,Ile]AII binding, Epididymal, rat epididymal fat cell membranes, 1 nM radioligand, 1-4 assays) [µM] | IC50 (AII receptor [3]) [µM]
CCCCc1nc2ccc([C@@]3(C)C[C@@H]4CCCN4O3)cc2c(=O)n1Cc1ccc(-c2ccccc2-c2nnn[nH]2)cc1 (racemic) [cis-(+/-)-2-butyl-6-(hexahydro-2-methylpyrrolo[1,2-b]isoxazol-2-yl)-3-[[2'-(1H-tetrazol-5-yl)[1,1-biphenyl]-4-yl]methyl]-4(3H)-quinazolinone sodium salt] | 31.8 | 187 | 0.0146 | -7 | -55 | -17 | -7 | -11 | 30.4 | 25 | 4.33 | 424 | 4.35 |  | 
Cc1cc(Cn2cnc3c2C[C@@H](C(=O)O)N(C(=O)C(c2ccccc2)c2ccccc2)C3)ccc1N(C)C [((S)-)-[[4-(di-methylamino)-3-methylphenyl]methyl-5-(diphenylacetyl)-4,5,6,7-tetrahydro-1H-imidazo[4,5-c]-pyridine-6-carboxylic acid, reference compound] |  |  |  |  |  |  |  |  |  |  |  |  |  | 173 | 242
